# Assay results published in patent publication US9212168B2 (priority 2011, dated 2015).
# Test system: HCV genotype 1a replicon
# Experiment: HCV genotype 1a replicon assay (NS3 protease activity readout)
# Type: cell-based, hepatitis C virus
# Conditions: HCV genotype 1a replicon
# Method: Assay 2: HCV Genotype 1a Replicon Assay
# The HCV genotype 1a replicon cell line was obtained from Apath LLC (APC89; Huh7.5 cell background). This subgenomic replicon contains the N-terminus of the HCV core protein fused to the neomycin-resistance selectable marker. The EMCV IRES lies downstream and drives expression of the non-structural proteins NS3-NS5B. Compound potencies were determined using the NS3-specific protease activity in lysates as a measurement of compound inhibition of replicon levels.
# Cells were grown at 37° C. in a 5% CO2 humidified incubator in DMEM (Invitrogen) with 10% FBS (HyClone), 1×NEAA (Invitrogen), 1× Pen-Strep (Invitrogen), and 850 μg/mL G418 (Invitrogen). On day 1 of the assay, cells were plated at 15,000 cells/well in black 96-well tissue culture plates (Costar) in 200 μL media lacking G418. Four hours later, once the cells had adhered, the media was removed and replaced with media (no G418) containing dose-responses of test compounds. Compounds were initially diluted in DMSO and then diluted another 200× in media to bring the final DMSO concentration down to 0.5%. The cells were incubated with test compounds for 48 or 72 hours. At the end of the incubation period, media and compound were removed from the plates.
# To determine the NS3-specific protease activity in lysates, the cells were lysed at room temperature in 50 μL/well of 50 mM Hepes pH 7.5, 150 mM NaCl, 15% Glycerol, 0.15% Triton X-100, 10 mM DTT for 20 minutes with shaking. 50 μL of an NS3/4a protease-specific FRET substrate (Anaspec RET S1 Cat#22991) was then added to the wells at a final concentration of 15 μM. The plates were incubated at 37° C. for 20 minutes, which corresponds to a timepoint at which the protease activity is still in the linear phase. Protease activity was determined by measuring fluorescence (Excitation: 340 nm; Emission: 509 nm).
# To analyze the data, the fluorescence was plotted vs. the compound concentration, and EC50 values were determined from a 4-parameter robust fit model using GraphPad Prism software.
row,Compound,Genotype 1a
1,COC(=O)N[C@H](C(=O)N1C[C@@H](C)C[C@H]1c1nc(-c2ccc(-c3cc(Cl)c(NC(=O)c4ccc(N5CCN(C(=O)C(C)(C)C)C[C@H]5C)nc4)cc3C(F)(F)F)cc2)c[nH]1)C1CCCCC1 [Example 19-8],B (B represents pEC50 between 8 and 9 (EC50 between 1 and 10 nM))
2,COC(=O)N[C@H](C(=O)N1C[C@@H](C)C[C@H]1c1nc(-c2ccc(-c3cc(Cl)c(NC(=O)c4ccc(N5CCN(C(=O)C6CC6)C[C@H]5C)nc4)cc3OC(F)(F)F)cc2)c[nH]1)C(C)C [Example 1-42],D (D represents pEC50>10 (EC50<0.1 nM))
3,COC(=O)N[C@H](C(=O)N1C[C@@H](C)C[C@H]1c1nc(-c2ccc(-c3cc(Cl)c(NC(=O)c4ccc(N5CCN(C(=O)C(C)(C)CO)C[C@H]5C)nc4)cc3C(F)(F)F)cc2)c[nH]1)C1CCCCC1 [Example 19-7],B (B represents pEC50 between 8 and 9 (EC50 between 1 and 10 nM))
4,COC(=O)N[C@H](C(=O)N1C[C@@H](C)C[C@H]1c1nc(-c2ccc(-c3cc(F)c(NC(=O)c4ccc(N5CCN(C(=O)c6c[nH]cn6)C[C@H]5C)nc4)cc3C(F)(F)F)cc2)c[nH]1)C(C)C [Example 1-29],D (D represents pEC50>10 (EC50<0.1 nM))
5,COC(=O)N[C@H](C(=O)N1C[C@@H](N(C)C)C[C@H]1c1nc(-c2ccc(-c3cc(Cl)c(NC(=O)c4ccc(N5CCN(C(=O)C(C)(C)C)C[C@H]5C)nc4)cc3OC(F)(F)F)cc2)c[nH]1)C(C)C [Example 2-7],"C (C represents pEC50 between and 9 and about 10, (EC50 between 1 nM and 0.1 nM))"
6,COC(=O)N[C@H](C(=O)N1C[C@@H](C)C[C@H]1c1nc(-c2ccc(-c3cc(F)c(C(=O)Nc4ccc(N5CCN(C(=O)C(C)(C)C)C[C@H]5C)nc4)cc3OC(F)(F)F)cc2)c(Cl)[nH]1)C(C)C [Example 4-45],"C (C represents pEC50 between and 9 and about 10, (EC50 between 1 nM and 0.1 nM))"
7,COC(=O)N[C@H](C(=O)N1C[C@@H](C)C[C@H]1c1nc(-c2ccc(-c3cc(Cl)c(NC(=O)c4ccc(N5C[C@H](C)N(C(=O)[C@H]6CCCN6S(C)(=O)=O)C[C@H]5C)nc4)cc3OC(F)(F)F)cc2)c[nH]1)C(C)C [Example 1-45],D (D represents pEC50>10 (EC50<0.1 nM))
8,COC(=O)N[C@H](C(=O)N1C[C@@H](OC)C[C@H]1c1nc(-c2ccc(-c3ccc(C(=O)Nc4ccc(N5CCN(C(=O)[C@H]6CC6(C)C)C[C@H]5C)nc4)cc3)cc2)c[nH]1)C1CCOCC1 [Example 22-15],D (D represents pEC50>10 (EC50<0.1 nM))
9,COC(=O)N[C@H](C(=O)N1C[C@@H](C)C[C@H]1c1nc(-c2ccc(-c3cc(Cl)c(NC(=O)c4ccc(N5CCN(C(=O)[C@H]6CCCN6C(C)=O)C[C@H]5C)nc4)cc3OC(F)(F)F)cc2)c[nH]1)C(C)C [Example 1-47],D (D represents pEC50>10 (EC50<0.1 nM))
10,COC(=O)N[C@H](C(=O)N1C[C@@H](OC)C[C@H]1c1nc(-c2ccc(-c3ccc(NC(=O)c4ccc(N5CCN(C(=O)C(C)(C)CO)C[C@H]5C)nc4)cc3OC(F)(F)F)cc2)c[nH]1)C1CCOCC1 [Example 28-4],D (D represents pEC50>10 (EC50<0.1 nM))
11,COC(=O)N[C@H](C(=O)N1C[C@@H](C)C[C@H]1c1nc(-c2ccc(-c3cc(F)c(NC(=O)c4ccc(N5CCN(C(=O)C6CC67CC7)C[C@H]5C)nc4)cc3Cl)cc2)c[nH]1)C(C)C (stereo partly drawn) [Example 1-84],"C (C represents pEC50 between and 9 and about 10, (EC50 between 1 nM and 0.1 nM))"
12,COC(=O)N[C@H](C(=O)N1C[C@@H](C)C[C@H]1c1nc(-c2ccc(-c3cc(Cl)c(NC(=O)c4ccc(N5CCN(C(=O)[C@H]6CCCN6C(=O)C(C)(C)C)C[C@H]5C)nc4)cc3OC(F)(F)F)cc2)c[nH]1)C(C)C [Example 1-50],D (D represents pEC50>10 (EC50<0.1 nM))
13,COC(=O)N[C@H](C(=O)N1C[C@@H](C)C[C@H]1c1nc(-c2ccc(-c3ccc(C(=O)Nc4ccc(N5C[C@H](C)N(C(=O)C(C)(C)NC(C)=O)C[C@H]5C)nc4)cc3OC(F)(F)F)cc2)c[nH]1)C(C)C [Example 4-27],"C (C represents pEC50 between and 9 and about 10, (EC50 between 1 nM and 0.1 nM))"
14,COC(=O)N[C@H](C(=O)N1C[C@@H](C)C[C@H]1c1nc(-c2ccc(-c3ccc(C(=O)Nc4ccc(N5C[C@H](C)N(C(=O)[C@@]6(O)CC6(C)C)C[C@H]5C)nc4)cc3OC(F)(F)F)cc2)c[nH]1)C(C)C [Example 4-38],"C (C represents pEC50 between and 9 and about 10, (EC50 between 1 nM and 0.1 nM))"
15,COC(=O)N[C@H](C(=O)N1C[C@@H](C)C[C@H]1c1nc(-c2ccc(-c3ccc(C(=O)Nc4ccc(N5CCN(C(=O)[C@H]6CC6(C)C)C[C@H]5C)nc4)cc3)cc2)c[nH]1)C1CCOCC1 [Example 22-2],D (D represents pEC50>10 (EC50<0.1 nM))
16,COC(=O)N[C@H](C(=O)N1C[C@@H](C)C[C@H]1c1nc(-c2ccc(-c3cc(Cl)c(NC(=O)c4ccc(N5CCN(C(=O)c6cn(C)cn6)C[C@H]5C)nc4)cc3OC(F)(F)F)cc2)c[nH]1)C(C)C [Example 1-33],"C (C represents pEC50 between and 9 and about 10, (EC50 between 1 nM and 0.1 nM))"
17,COC(=O)NC(C(=O)N1CC(F)CC1c1nc(-c2ccc(-c3cc(Cl)c(NC(=O)c4ccc(N5CCN(C(=O)C(C)(C)CO)CC5C)nc4)cc3OC(F)(F)F)cc2)c[nH]1)C(C)C (stereo not drawn) [Example 29-3],"C (C represents pEC50 between and 9 and about 10, (EC50 between 1 nM and 0.1 nM))"
18,COC(=O)N[C@H](C(=O)N1C[C@@H](OC)C[C@H]1c1nc(-c2ccc(-c3cc(Cl)c(NC(=O)c4ccc(N5CCN(C(=O)C(C)(C)CO)C[C@H]5C)nc4)cc3C(F)(F)F)cc2)c[nH]1)C1CCCCC1 [Example 19-15],D (D represents pEC50>10 (EC50<0.1 nM))
19,COC(=O)N[C@H](C(=O)N1C[C@@H](C)C[C@H]1c1nc(-c2ccc(-c3cc(Cl)c(NC(=O)c4ccc(N5CCN(C(=O)[C@H]6CCCN6C(=O)C(C)C)C[C@H]5C)nc4)cc3OC(F)(F)F)cc2)c[nH]1)C(C)C [Example 1-49],D (D represents pEC50>10 (EC50<0.1 nM))

# Same assay, conditions: Hepatitis C virus, read-out: Genotype 1a, HCV genotype 1a replicon
row,Compound,EC50
1,[2H]C([2H])([2H])C1(C([2H])([2H])[2H])C[C@@H]1C(=O)N1CCN(c2ccc(NC(=O)c3ccc(-c4ccc(-c5c[nH]c([C@@H]6C[C@H]([S+](C)[O-])CN6C(=O)[C@@H](NC(=O)OC)C(C)C)n5)cc4)c(OC(F)(F)F)c3)cn2)[C@H](C)C1 (stereo partly drawn) [Example 6-20],1 to 10 nM
2,COC(=O)N[C@H](C(=O)N1C[C@@H](C)C[C@H]1c1nc(-c2ccc(-c3cc(Cl)c(NC(=O)c4ccc(N5CCN(C(=O)C(C)(C)C)C[C@H]5C)nc4)cc3OC(F)(F)F)cc2)c[nH]1)[C@H](C)OC [Example 13-8],< 0.1 nM
3,COC(=O)N[C@H](C(=O)N1C[C@@H](N(C)C(C)C)C[C@H]1c1nc(-c2ccc(-c3cc(Cl)c(NC(=O)c4ccc(N5CCN(C(=O)C(C)(C)C)C[C@H]5C)nc4)cc3OC(F)(F)F)cc2)c[nH]1)C(C)C [Example 15-7],< 0.1 nM
4,COC(=O)N[C@H](C(=O)N1C[C@@H](S(C)(=O)=O)C[C@H]1c1nc(-c2ccc(-c3ccc(C(=O)Nc4ccc(N5CCN(C(=O)[C@H]6CC6(C)C)C[C@H]5C)nc4)cc3OC(F)(F)F)cc2)c[nH]1)C(C)C [Example 6-21],0.1 to 1 nM
5,COC(=O)N[C@H](C(=O)N1CC(C)(C)C[C@H]1c1nc(-c2ccc(-c3cc(F)c(NC(=O)c4ccc(N5CCN(C(=O)C6CC6)C[C@H]5C)nc4)cc3C(F)(F)F)cc2)c[nH]1)C(C)C [Example 3-3],0.1 to 1 nM
6,COC(=O)N[C@H](C(=O)N1C[C@@H](N(C)C)C[C@H]1c1nc(-c2ccc(-c3ccc(C(=O)Nc4ccc(N5CCN(C(=O)[C@]6(C)CCCN6C(=O)[C@@H](NC(=O)OC)C(C)C)C[C@H]5C)nc4)cc3)cc2)c[nH]1)C(C)C [Example 6-3],0.1 to 1 nM
7,COCCO[C@H]1C[C@@H](c2nc(-c3ccc(-c4cc(Cl)c(NC(=O)c5ccc(N6CCN(C(=O)C(C)(C)C)C[C@H]6C)nc5)cc4OC(F)(F)F)cc3)c[nH]2)N(C(=O)[C@@H](NC(=O)OC)C(C)C)C1 [Example 15-1],0.1 to 1 nM
8,COC(=O)N[C@H](C(=O)N1C[C@@H](C)C[C@H]1c1nc(-c2ccc(-c3cc(Cl)c(NC(=O)c4ccc(N5CCN(C(=O)C(C)(C)CN)C[C@H]5C)nc4)cc3OC(F)(F)F)cc2)c[nH]1)C(C)C [Example 12-36],10 to 1000 nM
9,CNC(=O)NCC(C)(C)C(=O)N1CCN(c2ccc(C(=O)Nc3cc(OC(F)(F)F)c(-c4ccc(-c5c[nH]c([C@@H]6C[C@H](C)CN6C(=O)[C@@H](NC(=O)OC)C(C)C)n5)cc4)cc3Cl)cn2)[C@H](C)C1 [Example 12-40],< 0.1 nM
10,COC(=O)N[C@H](C(=O)N1CC(C)(C)C[C@H]1c1nc(-c2ccc(-c3ccc(C(=O)Nc4ccc(N5CCN(C(=O)C6CC6(C)C)C[C@H]5C)nc4)cc3OC(F)(F)F)cc2)c[nH]1)C(C)C (stereo partly drawn) [Example 6-8],0.1 to 1 nM
11,COC(=O)NC(C(=O)N1C[C@@H](C)C[C@H]1c1nc(-c2ccc(-c3cc(Cl)c(C(=O)Nc4ccc(N5CCN(C(=O)C(C)(C)C)C[C@H]5C)nc4)cc3OC(F)(F)F)cc2)c[nH]1)C1CCCCC1 (stereo partly drawn) [Example 23-3],0.1 to 1 nM
